From patent US20230373989A1, “N-PHENYLAMINOCARBONYL PYRIDINO-, PYRIMIDINO AND BENZO-TROPANES AS MODULATORS OF GPR65” (PATHIOS THERAPEUTICS LIMITED, priority 2020, published 2023)
Read-outs that look alike come from different tables or passages of the source.

Target: T1, human recombinant GPR65 (Homo sapiens, UniProt Q8IYL9)
T1 construct: host or cells: 1321N1 human astrocytoma cells (1321N1-hrGPR65)
Test: Human GPR65 cAMP HTRF antagonist assay
Type: cell-based
Excerpt: In one preferred embodiment, the compound prevents the increase in cytoplasmic cAMP levels expected following GPR65 activation at acidic pH. This prevention of cAMP accumulation in turn prevents downstream signalling through ICER, as described above. The “Human GPR65 cyclic adenosine monophosphate (cAMP) Homogeneous Time Resolved Fluorescence (HTRF) antagonist assay”, or simply “cAMP assay”, as described in the accompanying examples, can be used to measure the potency of GPR65 modulators, which is expressed as the concentration of compound required to reduce the increase in cAMP concentration upon GPR65 activation by 50% (i.e. an IC50).
Human GPR65 Cyclic Adenosine Monophosphate (cAMP) Homogeneous Time Resolved Fluorescence (HTRF) Antagonist Assay Procedure
IC50 data was obtained by the following procedure:
1321N1 human astrocytoma cells stably expressing human recombinant GPR65 (1321N1-hrGPR65 cells, EuroscreenFast) were cultured according to the vendor's instructions.
Compounds were tested for their ability to antagonise GPR65, through measuring the concentration of cytoplasmic cAMP following treatment of the cells at a pH of 7.2 to activate GPR65 signalling and addition of the compound to be tested. The extent to which the expected rise in cAMP concentration upon GPR65 activation was suppressed by the added compound is indicative of its potency. The assay was carried out according to EuroscreenFast assay methodology as follows.
On the day of the assay, test compounds were added to 384-well, low volume, white microtiter plates by acoustic dispensing. KRH buffer (5 mM KCl, 1.25 mM MgSO4, 124 mM NaCl, 25 mM HEPES, 13.3 mM Glucose, 1.25 mM KH2PO4 and 1.45 mM CaCl2) was adjusted to pH 6.5, pH 7.6 and pH 8.4 by adding NaOH. 1321N1-hGPR65 cells were rapidly thawed and diluted in KRH, pH 7.6 prior to centrifugation at 300×g for 5 min and resuspension in assay buffer (KRH, pH 7.6, supplemented with 1 mM 3-isobutyl-1-methylxanthine (IBMX) and 200 μM ethylenediaminetetraacetic acid (EDTA)). Cells were added to assay plates at a density of 2,000 cells per well in a volume of 5 μl. Assay plates were briefly centrifuged at 100×g and then incubated at room temperature for 30 min. Cells were stimulated by the addition of 5 μL KRH, pH 6.5, to achieve an assay pH of 7.2, while control wells received 5 μl KRH, pH 8.4 to achieve an assay pH of 7.9. Assay plates were briefly centrifuged at 100×g and then incubated at room temperature for 30 min.
Accumulation of cAMP was detected by cAMP HTRF kit (Cisbio). d2-labeled cAMP and cryptate-labeled anti-cAMP antibody in Lysis and Detection Buffer (Cisbio) were added to assay plates, and the plates were incubated at room temperature for 1 h. HTRF measurements were performed using a Pherastar FSX instrument. Acceptor and donor emission signals were measured at 665 nm and 620 nm, respectively, and HTRF ratios were calculated as signal665 nm/signal620 nm×104. Data were normalised to high and low control values and fitted with 4-parameter logistic regression to determine hGPR65 IC50 values for the test compounds, which are shown in Table 1.

[1] = 1321N1-hrGPR65 cells, assay pH 7.2, cAMP HTRF, read-out: hGPR65 IC50 (activity class)

T1 sequence (Q8IYL9 whole entry): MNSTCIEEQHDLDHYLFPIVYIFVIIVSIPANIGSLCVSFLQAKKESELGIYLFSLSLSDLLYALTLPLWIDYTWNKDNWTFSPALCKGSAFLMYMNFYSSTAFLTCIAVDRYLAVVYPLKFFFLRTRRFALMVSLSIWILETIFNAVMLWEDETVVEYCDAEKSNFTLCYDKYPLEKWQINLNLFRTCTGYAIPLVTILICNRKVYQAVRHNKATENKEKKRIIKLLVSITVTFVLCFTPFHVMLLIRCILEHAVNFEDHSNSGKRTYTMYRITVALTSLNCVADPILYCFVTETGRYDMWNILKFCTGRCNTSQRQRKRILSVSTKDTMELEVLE

Compound	IC50 [µM]	IC50 [1] [µM]
O=C(Nc1ccc(-c2ccccc2)cc1)N1[C@H]2CC[C@@H]1c1ccnc(F)c1C2 [Compound 192, (5R,8S)-N-([1,1′-Biphenyl]-4-yl)-1-fluoro-6,7,8,9-tetrahydro-5H-5,8-epiminocyclohepta[c]pyridine-10-carboxamide]	< 0.5	–
O=C(Nc1ccc(OC(F)(F)F)c(Cl)c1)N1[C@H]2CC[C@@H]1c1c[nH]c(=O)cc1C2 [Compound 128, (6S,9R)-N-(3-Chloro-4-(trifluoromethoxy)phenyl)-3-oxo-3,5,6,7,8,9-hexahydro-2H-6,9-epiminocyclohepta[c]pyridine-10-carboxamide]	< 0.5	–
O=C(Nc1ccc(C(F)(F)F)c(Cl)c1)N1[C@@H]2CC[C@H]1c1c[nH]c(=O)nc1C2 [Compound 44, (5S,8R)-N-(3-Chloro-4-(trifluoromethyl)phenyl)-2-oxo-3,5,6,7,8,9-hexahydro-2H-5,8-epiminocyclohepta[d]pyrimidine-10-carboxamide]	–	> 5
O=C(Nc1ccc(Cl)c(C(F)(F)F)c1)N1[C@H]2CC[C@@H]1c1cncnc1C2 [Compound 42, (5R,8S)-N-(4-Chloro-3-(trifluoromethyl)phenyl)-6,7,8,9-tetrahydro-5H-5,8-epiminocyclohepta[d]pyrimidine-10-carboxamide]	< 0.5	–
O=C(Nc1ccc(C(F)(F)F)c(Cl)c1)N1C2CCC1c1cncnc1C2 (racemic) [Compound 2, (±)-N-(3-Chloro-4-(trifluoromethyl)phenyl)-6,7,8,9-tetrahydro-5H-5,8-epiminocyclohepta[d]pyrimidine-10-carboxamide]	< 0.5	–
O=C(Nc1ccc(OC(F)F)c(Cl)c1)N1[C@H]2CC[C@@H]1c1c[nH]c(=O)cc1C2 [Compound 127, (6S,9R)-N-(3-Chloro-4-(difluoromethoxy)phenyl)-3-oxo-3,5,6,7,8,9-hexahydro-2H-6,9-epiminocyclohepta[c]pyridine-10-carboxamide]	< 0.5	–
O=C(Nc1ccc(C(F)(F)F)c(Cl)c1)N1C2CCC1c1cnccc1C2 (racemic) [Compound 37, (±)-N-(3-Chloro-4-(trifluoromethyl)phenyl)-6,7,8,9-tetrahydro-5H-6,9-epiminocyclohepta[c]pyridine-10-carboxamide]	–	0.5 to 5
O=C(Nc1ccc(Cl)c(Cl)c1)N1[C@@H]2CC[C@H]1c1c[nH]c(=O)nc1C2 [Compound 105, (5S,8R)-N-(3,4-Dichlorophenyl)-2-oxo-3,5,6,7,8,9-hexahydro-2H-5,8-epiminocyclohepta[d]pyrimidine-10-carboxamide]	–	> 5
CC(C)(C)Nc1nccc2c1CC1CCC2N1C(=O)Nc1ccc(Cl)c(Cl)c1 (racemic) [Compound 65, (±)-1-(tert-Butylamino)-N-(3,4-dichlorophenyl)-6,7,8,9-tetrahydro-5H-5,8-epiminocyclohepta[c]pyridine-10-carboxamide]	–	0.5 to 5
O=C(Nc1ccc(Cl)c(Cl)c1)N1C2CCC1c1cncc(F)c1C2 (racemic) [Compound 95, (±)-N-(3,4-Dichlorophenyl)-4-fluoro-6,7,8,9-tetrahydro-5H-6.9-epiminocyclohepta[c]pyridine-10-carboxamide]	–	0.5 to 5
O=C(Nc1ccc(Cl)c(Cl)c1)N1C2CCC1c1ccnc(Cl)c1C2 (racemic) [Compound 77, (±)-1-Chloro-N-(3,4-dichlorophenyl)-6,7,8,9-tetrahydro-5H-5,8-epiminocyclohepta[c]pyridine-10-carboxamide]	< 0.5	–
O=C(Nc1ccc(Cl)c(Cl)c1)N1C2CCC1c1ccc(F)cc1C2 (racemic) [Compound 74, (±)-N-(3,4-Dichlorophenyl)-2-fluoro-6,7,8,9-tetrahydro-5H-5,8-epiminobenzo[7]annulene-10-carboxamide]	< 0.5	–
O=C(Nc1ccc(Cl)cc1F)N1C2CCC1c1ccnc(F)c1C2 (racemic) [Compound 177, (±)-N-(4-Chloro-2-fluorophenyl)-1-fluoro-6,7,8,9-tetrahydro-5H-5,8-epiminocyclohepta[c]pyridine-10-carboxamide]	< 0.5	–
CC(C)(C)OC(=O)Nc1nccc2c1C1CCC(C2)N1C(=O)Nc1ccc(Cl)c(Cl)c1 (racemic) [Compound 82, tert-butyl ((±)-10-((3,4-dichlorophenyl)carbamoyl)-6,7,8,9-tetrahydro-5H-6,9-epiminocyclohepta[c]pyridin-1-yl)carbamate]	–	0.5 to 5
N#Cc1cc(Cl)c(Cl)cc1NC(=O)N1[C@H]2CC[C@@H]1c1c[nH]c(=O)cc1C2 [Compound 88, (6S,9R)-N-(4,5-Dichloro-2-cyanophenyl)-3-oxo-3,5,6,7,8,9-hexahydro-2H-6,9-epiminocyclohepta[c]pyridine-10-carboxamide]	< 0.5	–
O=C(Nc1cc(C(F)(F)F)c(Cl)cc1F)N1[C@H]2CC[C@@H]1c1ccnc(F)c1C2 [Compound 126, (5R,8S)-N-(4-Chloro-2-fluoro-5-(trifluoromethyl)phenyl)-1-fluoro-6,7,8,9-tetrahydro-5H-5,8-epiminocyclohepta[c]pyridine-10-carboxamide]	< 0.5	–
O=C(Nc1cc(Cl)c(Cl)cc1F)N1[C@H]2CC[C@@H]1c1c[nH]c(=O)cc1C2 [Compound 94, (6S,9R)-N-(4,5-Dichloro-2-fluorophenyl)-3-oxo-3,5,6,7,8,9-hexahydro-2H-6,9-epiminocyclohepta[c]pyridine-10-carboxamide]	< 0.5	–
O=C(Nc1cc(Cl)cc(C(F)(F)F)c1)N1C2CCC1c1ccnc(F)c1C2 (racemic) [Compound 164, (±)-N-(3-Chloro-5-(trifluoromethyl)phenyl)-1-fluoro-6,7,8,9-tetrahydro-5H-5,8-epiminocyclohepta[c]pyridine-10-carboxamide]	< 0.5	–
O=C(Nc1ccc(Cl)c(Cl)c1)N1C2CCC1c1ccnc(Br)c1C2 (racemic) [Compound 148, (±)-1-Bromo-N-(3,4-dichlorophenyl)-6,7,8,9-tetrahydro-5H-5,8-epiminocyclohepta[c]pyridine-10-carboxamide]	–	0.5 to 5
Cc1ncc2c(n1)CC1CCC2N1C(=O)Nc1ccc(Cl)c(Cl)c1 (racemic) [Compound 25, (±)-N-(3,4-Dichlorophenyl)-2-methyl-6,7,8,9-tetrahydro-5H-5,8-epiminocyclohepta[d]pyrimidine-10-carboxamide]	–	> 5
O=C(Nc1ccc(Cl)c(Cl)c1)N1C2CCC1c1cc[n+]([O-])cc1C2 (racemic) [Compound 58, (±)-10-((3,4-Dichlorophenyl)carbamoyl)-6,7,8,9-tetrahydro-5H-5,8-epiminocyclohepta[c]pyridine 2-oxide]	< 0.5	–
COc1cc(NC(=O)N2C3CCC2c2ccnc(F)c2C3)ccc1-c1cnco1 (racemic) [Compound 152, (±)-1-Fluoro-N-(3-methoxy-4-(oxazol-5-yl)phenyl)-6,7,8,9-tetrahydro-5H-5,8-epiminocyclohepta[c]pyridine-10-carboxamide]	–	0.5 to 5
O=C(Nc1ccc(Cl)c(Cl)c1)N1C2CCC1c1cnc(Cl)cc1C2 (racemic) [Compound 100, (±)-3-Chloro-N-(3,4-dichlorophenyl)-6,7,8,9-tetrahydro-5H-6,9-epiminocyclohepta[c]pyridine-10-carboxamide]	–	0.5 to 5
O=C(Nc1cc(Cl)c(Cl)cc1F)N1C2CCC1c1ccc(F)nc1C2 (racemic) [Compound 181, (±)-N-(4,5-Dichloro-2-fluorophenyl)-2-fluoro-6,7,8,9-tetrahydro-5H-5,8-epiminocyclohepta[b]pyridine-10-carboxamide]	< 0.5	–
